One test has as its target PDGFR-β (Homo sapiens (Human), UniProt P09619). Put plainly: PDGFR-β tyrosine kinase inhibitory action (HTRF KinEASE-TK). The conditions noted are these: PDGFR-β enzyme 1 ng/μL, 30° C. for 30 minutes; read-out: PDGF-β IC50. In kind it is biochemical. The essentials: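 Recombinant PDGFR-β at 1 ng/μL final with TK substrate-3-biotin in a substrate solution containing 0.6 μM ATP; buffer 50 mM HEPES pH 7.0, 5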
Background: Time-resolved FRET reads energy transfer from a long-lived donor to a nearby acceptor.

The target in test [1] is TEL-PDGFRβ fusion gene transfected cells (Ba/F3). Put plainly: Suppression of proliferation of TEL-PDGFRβ fusion gene transfected Ba/F3 cells. The note with it: TEL-PDGFRβ expressing Ba/F3 cells, 72 hours, final concentration 0.1 to 10,000 nM; read-out: PDGFR β/BaF3 proliferation inhibition (IC50). The test is classed as cell-based, human. From the text: 2. Preparation of Test Substance
Sequence of TEL-PDGFRβ fusion gene transfected cells (Ba/F3) (P09619 33-1106 limits assumed, change not shown): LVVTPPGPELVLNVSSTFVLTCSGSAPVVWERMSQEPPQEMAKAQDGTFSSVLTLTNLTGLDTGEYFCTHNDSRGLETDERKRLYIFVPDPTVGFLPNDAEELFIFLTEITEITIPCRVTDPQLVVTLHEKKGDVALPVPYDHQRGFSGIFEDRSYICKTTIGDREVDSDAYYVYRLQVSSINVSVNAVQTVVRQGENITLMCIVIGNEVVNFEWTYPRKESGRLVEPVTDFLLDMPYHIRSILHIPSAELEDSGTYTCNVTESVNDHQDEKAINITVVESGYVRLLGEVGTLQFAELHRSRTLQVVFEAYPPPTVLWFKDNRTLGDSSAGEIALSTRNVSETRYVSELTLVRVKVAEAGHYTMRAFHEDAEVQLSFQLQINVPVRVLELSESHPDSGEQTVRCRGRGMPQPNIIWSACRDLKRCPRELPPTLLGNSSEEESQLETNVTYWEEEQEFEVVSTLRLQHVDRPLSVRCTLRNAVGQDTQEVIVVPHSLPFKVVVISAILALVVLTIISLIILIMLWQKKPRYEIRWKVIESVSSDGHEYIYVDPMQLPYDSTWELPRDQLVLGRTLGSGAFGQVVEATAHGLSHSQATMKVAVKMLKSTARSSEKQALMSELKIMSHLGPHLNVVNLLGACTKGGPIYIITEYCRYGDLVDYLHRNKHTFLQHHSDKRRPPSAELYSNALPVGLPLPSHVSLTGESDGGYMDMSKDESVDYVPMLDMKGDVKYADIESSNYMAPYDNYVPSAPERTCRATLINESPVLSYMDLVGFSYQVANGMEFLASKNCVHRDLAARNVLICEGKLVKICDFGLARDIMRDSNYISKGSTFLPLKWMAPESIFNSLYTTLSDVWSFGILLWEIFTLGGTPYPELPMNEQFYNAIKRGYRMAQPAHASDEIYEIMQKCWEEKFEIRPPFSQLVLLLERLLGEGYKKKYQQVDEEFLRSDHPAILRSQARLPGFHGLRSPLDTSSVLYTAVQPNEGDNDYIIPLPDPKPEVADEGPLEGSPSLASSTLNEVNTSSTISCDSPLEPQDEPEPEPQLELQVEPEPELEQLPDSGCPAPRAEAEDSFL
4. Analysis of Measurement Results

In test [2] the test system is pulmonary arterial smooth muscle cells. The experiment in a line: Suppression of proliferation of pulmonary arterial smooth muscle cells (PDGF-BB stimulation, BrdU). In kind it is cell-based. The conditions noted are these: PASMC, read-out: Human normal PASMC proliferation suppression (PDGF stimulation_IC50). The essentials:
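Healthy human pulmonary arterial smooth muscle cells, serum-starved a day in 0.1% FBS medium, were treated with compound at final 3 to 10,000 nM plus human PDGF-BB (final 10 ng/mL) and BrdU. After 1 day of culture, BrdU uptake was measured with an anti-BrdU antibody.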

For test [3], the target named is TEL-KIT fusion gene transfected cells (Ba/F3). Put plainly: Suppression of proliferation of TEL-KIT fusion gene transfected Ba/F3 cells.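 Note: viable cells quantified via formazan from tetrazolium reduction, inhibition scaled with 0.1% DMSO control as 0% and medium-only blank as 100%, IC50 from two-parameter logistic fit.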 The note with it: read-out: KIT/BaF3 proliferation inhibition (IC50); TEL-KIT expressing Ba/F3 cells, 72 hours, final concentration 0.1 to 10,000 nM.
Sequence of TEL-KIT fusion gene transfected cells (Ba/F3) (P10721 26-976 limits assumed, change not shown): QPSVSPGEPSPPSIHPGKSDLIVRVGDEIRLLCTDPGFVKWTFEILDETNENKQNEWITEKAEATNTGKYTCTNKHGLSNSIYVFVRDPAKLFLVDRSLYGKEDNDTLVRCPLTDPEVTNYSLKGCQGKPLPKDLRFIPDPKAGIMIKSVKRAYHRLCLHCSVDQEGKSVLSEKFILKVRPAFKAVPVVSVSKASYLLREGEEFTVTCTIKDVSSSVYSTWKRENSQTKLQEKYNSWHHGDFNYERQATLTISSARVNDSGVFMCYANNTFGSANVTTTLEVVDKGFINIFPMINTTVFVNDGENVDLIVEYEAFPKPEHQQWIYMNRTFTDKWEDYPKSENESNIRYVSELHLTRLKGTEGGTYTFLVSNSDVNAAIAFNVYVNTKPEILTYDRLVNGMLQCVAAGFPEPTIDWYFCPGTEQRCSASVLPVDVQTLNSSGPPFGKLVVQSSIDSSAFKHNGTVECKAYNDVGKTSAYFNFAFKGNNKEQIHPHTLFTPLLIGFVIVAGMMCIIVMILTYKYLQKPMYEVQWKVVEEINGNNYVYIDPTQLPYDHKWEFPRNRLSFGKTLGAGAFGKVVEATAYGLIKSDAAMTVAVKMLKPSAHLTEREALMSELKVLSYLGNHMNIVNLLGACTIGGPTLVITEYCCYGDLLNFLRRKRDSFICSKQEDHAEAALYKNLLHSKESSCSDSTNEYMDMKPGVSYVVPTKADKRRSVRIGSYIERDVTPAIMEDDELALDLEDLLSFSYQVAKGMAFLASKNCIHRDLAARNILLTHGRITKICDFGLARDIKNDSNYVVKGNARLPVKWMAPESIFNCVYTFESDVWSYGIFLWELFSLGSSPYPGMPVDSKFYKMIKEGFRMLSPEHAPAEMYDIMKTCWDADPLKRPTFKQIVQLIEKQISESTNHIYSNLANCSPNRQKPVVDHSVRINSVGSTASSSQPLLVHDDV
[4] abbreviates: 24 h, healthy human derived pulmonary arterial smooth muscle cells, human PDGF-BB 10 ng/mL stimulation, BrdU uptake after 1 day, test substance final concentration 3 to 10,000 nM.
The mark [5] stands for this setting: human PDGF-BB 10 ng/mL, BrdU uptake, final concentration 3 to 10,000 nM.

SMILES strings stand for the structures. Like-named read-outs stand apart in the source and are kept apart here. Bounds are passed on as bounds.

Sequence of PDGFR-β (P09619 33-1106): as the sequence (P09619 33-1106 limits assumed, change not shown) above

`Cc1ccc(C(=O)N[C@H]2CCCC[C@@H]2O)cc1COc1cncc(-c2ncccn2)c1` [Example 169, N-[(1S,2S)-2-hydroxycyclohexyl]-4-methyl-3-({[5-(pyrimidin-2-yl)pyridin-3-yl]oxy}methyl)benzamide]: the IC50 was 52 nM on PDGFR-β, 4 nM in test [1], 43 nM in test [2] (setting [4]) and 400 nM in test [3].
Regarding `Cc1ccc(NC(=O)N[C@@H]2CCCC[C@@H]2O)cc1CNc1cncc(-c2ncccn2)c1` [Example 162, N-[(1R,2S)-2-hydroxycyclohexyl]-N′-[4-methyl-3-({[5-(pyrimidin-2-yl)pyridin-3-yl]amino}methyl)phenyl]urea], the IC50 was determined as 2.6 nM at PDGFR-β, 1.1 nM in test [1], 36 nM in test [2] (setting [4]) and 270 nM in test [3].
For `Cc1ccc(C(=O)N[C@H]2CCCC[C@@H]2O)cc1NC(=O)c1cncc(-c2ccccc2OC(F)(F)F)c1` [Example 35, N-(5-{[(1S,2S)-2-hydroxycyclohexyl]carbamoyl}-2-methylphenyl)-5-[2-(trifluoromethoxy)phenyl]pyridine-3-carboxamide], the IC50 on PDGFR-β turned out to be 160 nM; in test [1] it was 17 nM; in test [2] (setting [4]), 320 nM; in test [3], 2200 nM.
Regarding `Cc1ccc(C(=O)N[C@H]2CCCC[C@@H]2O)cc1NC(=O)c1cncc(-c2ccccc2)c1` [Example 2, N-(5-{[(1S,2S)-2-hydroxycyclohexyl]carbamoyl}-2-methylphenyl)-5-phenylpyridine-3-carboxamide], the IC50 is 22 nM on PDGFR-β, 3.6 nM in test [1], 23 nM in test [2] (setting [5]) and 200 nM in test [3].
Regarding `Cc1ccc(C(=O)N[C@H]2CCCC[C@@H]2O)cc1C#Cc1cncc(C2CC2)n1` [Example 68, 3-[(6-cyclopropylpyrazin-2-yl)ethynyl]-N-[(1S,2S)-2-hydroxycyclohexyl]-4-methylbenzamide], the IC50 on PDGFR-β was determined as 80 nM; in test [1], 16 nM; in test [2] (setting [4]), 72 nM; in test [3], 2000 nM.
For `O=C(Nc1cc(C(=O)N[C@H]2CCCC[C@@H]2O)ccc1Cl)c1cncc(OCC2CC2)c1` [Example 44, N-(2-chloro-5-{[(1S,2S)-2-hydroxycyclohexyl]carbamoyl}phenyl)-5-(cyclopropylmethoxy)pyridine-3-carboxamide], the IC50 at PDGFR-β was found to be 190 nM; in test [1] it was 21 nM; in test [2] (setting [4]), 140 nM; in test [3], 940 nM.
As for `Cc1ccc(C(=O)N[C@H]2CCCC[C@@H]2O)cc1NC(=O)c1cncc(OCC2CC2)c1` [Example 24, 5-(cyclopropylmethoxy)-N-(5-{[(1S,2S)-2-hydroxycyclohexyl]carbamoyl}-2-methylphenyl)pyridine-3-carboxamide], the IC50 on PDGFR-β came out at 64 nM; in test [1], 11 nM; in test [2] (setting [5]), 110 nM; in test [3], 1200 nM.
In the case of `CC(C)=Cc1cncc(C(=O)Nc2cc(C(=O)N[C@H]3CCCC[C@@H]3O)ccc2C)c1` [Example 23, N-(5-{[(1S,2S)-2-hydroxycyclohexyl]carbamoyl}-2-methylphenyl)-5-(2-methylprop-1-en-1-yl)pyridine-3-carboxamide], the IC50 on PDGFR-β came to 26 nM; in test [1], 4.9 nM; in test [2] (setting [5]) it was 64 nM; in test [3] it was 620 nM.
For `Cc1ccc(C(=O)N[C@H]2CCCC[C@@H]2O)cc1NC(=O)c1cncc(OC(C)C)c1` [Example 7, N-(5-{[(1S,2S)-2-hydroxycyclohexyl]carbamoyl}-2-methylphenyl)-5-[(propan-2-yl)oxy]pyridine-3-carboxamide] the same measures were 170 nM, 43 nM, 150 nM and 1900 nM.
Turning to `Cc1ccc(C(=O)N[C@H]2CCCC[C@@H]2O)cc1C#Cc1cncc(-c2ccc(F)cc2)n1` [Example 71, 3-{[6-(4-fluorophenyl)pyrazin-2-yl]ethynyl}-N-[(1S,2S)-2-hydroxycyclohexyl]-4-methylbenzamide], the IC50 was 42 nM on PDGFR-β, 6 nM in test [1], 43 nM in test [2] (setting [4]) and 570 nM in test [3].
In the case of `Cc1ccc(C(=O)N[C@H]2CCCC[C@@H]2O)cc1N[C@@H](C)c1cncc(-c2ccncc2)c1` [Example 87, 3-{[(1S)-1-([3,4′-bipyridin]-5-yl)ethyl]amino}-N-[(1S,2S)-2-hydroxycyclohexyl]-4-methylbenzamide], the IC50 on PDGFR-β turned out to be 250 nM; in test [1], 27 nM; in test [2] (setting [4]), 350 nM; in test [3], 9900 nM.
Consider `Cc1ccc(C(=O)N[C@@H]2CCCC[C@H]2O)cc1CNc1cncc(-c2ncccn2)c1` [Example 149, N-[(1R,2R)-2-hydroxycyclohexyl]-4-methyl-3-({[5-(pyrimidin-2-yl)pyridin-3-yl]amino}methyl)benzamide], for which the IC50 at PDGFR-β worked out at 220 nM; in test [1] it was 58 nM; in test [2] (setting [4]), 150 nM; in test [3], 670 nM.
On the same counts, the results for `Cc1ccc(C(=O)N[C@H]2CCCC[C@@H]2O)cc1NC(=O)c1cnc(NC2(C)CCC2)s1` [Example 40, N-(5-{[(1S,2S)-2-hydroxycyclohexyl]carbamoyl}-2-methylphenyl)-2-[(1-methylcyclobutyl)amino]-1,3-thiazole-5-carboxamide] are 43 nM, 4.6 nM, 75 nM and 1200 nM.
With `Cc1ccc(C(=O)N[C@H]2CCCC[C@@H]2O)cc1NC(=O)c1cncc(OC2CCC(F)(F)CC2)c1` [Example 28, 5-[(4,4-difluorocyclohexyl)oxy]-N-(5-{[(1S,2S)-2-hydroxycyclohexyl]carbamoyl}-2-methylphenyl)pyridine-3-carboxamide], the IC50 at PDGFR-β worked out at 170 nM; in test [1] it was 50 nM; in test [2] (setting [5]), 280 nM; in test [3], 5800 nM.
On to `Cc1c(F)cc(C(=O)N[C@H]2CCCC[C@@H]2O)cc1NC(=O)c1cnc(CC2CC2)s1` [Example 48, 2-(cyclopropylmethyl)-N-(3-fluoro-5-{[(1S,2S)-2-hydroxycyclohexyl]carbamoyl}-2-methylphenyl)-1,3-thiazole-5-carboxamide], for which the IC50 at PDGFR-β came out at 120 nM; in test [1] it was 16 nM; in test [2] (setting [4]), 310 nM; in test [3], 650 nM.
On to `Cc1ccc(C(=O)N[C@H]2CCCC[C@@H]2O)cc1NCc1cncc(-c2cc(F)cc(F)c2)c1` [Example 100, 3-({[5-(3,5-difluorophenyl)pyridin-3-yl]methyl}amino)-N-[(1S,2S)-2-hydroxycyclohexyl]-4-methylbenzamide], for which the IC50 at PDGFR-β amounted to 32 nM; in test [1] it was 17 nM; in test [2] (setting [4]), 71 nM; in test [3], 8900 nM.
As to `O=C(Nc1ccc(F)c(CNc2cncc(-c3ncccn3)c2)c1)N[C@@H]1CCCC[C@@H]1O` [Example 161, N-[4-fluoro-3-({[5-(pyrimidin-2-yl)pyridin-3-yl]amino}methyl)phenyl]-N′-[(1R,2S)-2-hydroxycyclohexyl]urea], the IC50 on PDGFR-β is 16 nM; in test [1], 4.8 nM; in test [2] (setting [4]) it was 110 nM; in test [3], > 10000 nM.
`Cc1ccc(C(=O)N[C@H]2CCCC[C@@H]2O)cc1NC(=O)c1cnc(NCCC2CC2)s1` [Example 26, 2-[(2-cyclopropylethyl)amino]-N-(5-{[(1S,2S)-2-hydroxycyclohexyl]carbamoyl}-2-methylphenyl)-1,3-thiazole-5-carboxamide]: the IC50 on PDGFR-β stood at 4.6 nM; in test [1] it was 9.3 nM; in test [2] (setting [5]) it was 25 nM; in test [3], 460 nM.
Regarding `Cc1ccc(C(=O)N[C@H]2CCCC[C@@H]2O)cc1Nc1ccnc(-c2cccnc2)n1` [Example 78, N-[(1S,2S)-2-hydroxycyclohexyl]-4-methyl-3-{[2-(pyridin-3-yl)pyrimidin-4-yl]amino}benzamide], the IC50 at PDGFR-β turned out to be 51 nM; in test [1], 27 nM; in test [2] (setting [4]), 150 nM; in test [3], 570 nM.
Turning to `Cc1ccc(C(=O)N[C@H]2CCCC[C@@H]2O)cc1NC(=O)c1cnc(NC2CC(F)(F)C2)s1` [Example 25, 2-[(3,3-difluorocyclobutyl)amino]-N-(5-{[(1S,2S)-2-hydroxycyclohexyl]carbamoyl}-2-methylphenyl)-1,3-thiazole-5-carboxamide], the IC50 at PDGFR-β is 39 nM; in test [1], 50 nM; in test [2] (setting [5]) it was 230 nM; in test [3] it was > 10000 nM.
For the compound `Cc1ccc(C(=O)N[C@H]2CCCC[C@@H]2O)cc1NC(=O)c1cnc(NC(C)(C)C)s1` [Example 38, 2-(tert-butylamino)-N-(5-{[(1S,2S)-2-hydroxycyclohexyl]carbamoyl}-2-methylphenyl)-1,3-thiazole-5-carboxamide], the IC50 was found to be 79 nM on PDGFR-β, 7.3 nM in test [1], 210 nM in test [2] (setting [4]) and 1200 nM in test [3].

The record behind these values is patent US12509424B2, “Compound and composition as PDGF receptor kinase inhibitor” (NIPPON SHINYAKU CO., LTD., priority 2019, dated 2025).
